The numbers were not newly measured in patent publication US12115373B2, “Methods for reducing the risk of strokes by pharmacotherapy to reduce the number and duration of atrial fibrillations” (Xyra, LLC, priority 2022, dated 2024), which cites them from elsewhere.

The conditions of the data set: in 2016; reported by the Market Insider; cited from earlier work.

Consider `O=C(NC[C@H]1CN(c2ccc(N3CCOCC3=O)cc2)C(=O)O1)c1ccc(Cl)s1` [Xarelto, rivaroxaban], for which the adverse events entry is reported as “over 15,000”.
